Columns and labels:
Assay in all cases: Kinase inhibitor library screening, PrestoBlue cell viability, 1 or 10 μM, 72 h
501Mel cells (parental) = settings: 501Mel Parental, 72 h, in %
How it was run: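 Readout: PrestoBlue signal on a monochromator plate reader, given as percent viability relative to untreated controls. Parental and drug-resistant (Vemurafenib XP, Dabrafenib GP) sublines were tested; at least duplicates per line.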

[1] = system: 501Mel-GP cells (Dabrafenib-resistant); settings: 501Mel GP, 72 h, in %
[2] = system: 501Mel-XP cells (Vemurafenib-resistant); settings: 501Mel XP, 72 h, in %
A375 cells (parental) = settings: A375 Parental, 72 h
[3] = system: A375-GP cells (Dabrafenib-resistant); settings: A375 GP, 72 h
[4] = system: A375-XP cells (Vemurafenib-resistant); settings: A375 XP, 72 h
IGR37 cells (parental) = settings: IGR37 Parental, 72 h, in %
[5] = system: IGR37-GP cells (Dabrafenib-resistant); settings: IGR37 GP, 72 h
[6] = system: IGR37-XP cells (Vemurafenib-resistant); settings: IGR37 XP, 72 h

SMILES | Cell viability in kinase inhibitor library screening, 501Mel Parental, 1μΜ (501Mel cells (parental); 1μΜ) | Cell viability in kinase inhibitor library screening, 501Mel Parental, 10μΜ (501Mel cells (parental); 10μΜ) | Cell viability in kinase inhibitor library screening, 501Mel GP, 1μΜ ([1]; 1μΜ) | Cell viability in kinase inhibitor library screening, 501Mel GP, 10μΜ ([1]; 10μΜ) | Cell viability in kinase inhibitor library screening, 501Mel XP, 1μΜ ([2]; 1μΜ) | Cell viability in kinase inhibitor library screening, 501Mel XP, 10μΜ ([2]; 10μΜ) | Cell viability in kinase inhibitor library screening, A375 Parental, 10μΜ (A375 cells (parental); 10μΜ) | Cell viability in kinase inhibitor library screening, A375 Parental, 1μΜ (A375 cells (parental)) | Cell viability in kinase inhibitor library screening, A375 GP, 1μΜ ([3]; 1μΜ) | Cell viability in kinase inhibitor library screening, A375 GP, 10μΜ ([3]; 10μΜ) | Cell viability in kinase inhibitor library screening, A375 XP, 10μΜ ([4]; 10μΜ) | Cell viability in kinase inhibitor library screening, IGR37 Parental, 1μΜ (IGR37 cells (parental); 1μΜ) | Cell viability in kinase inhibitor library screening, IGR37 Parental, 10μΜ (IGR37 cells (parental); 10μΜ) | Cell viability in kinase inhibitor library screening, IGR37 GP, 10μΜ ([5]; 10μΜ) [%] | Cell viability in kinase inhibitor library screening, IGR37 GP, 1μΜ ([5]; 1μΜ, in %) | Cell viability in kinase inhibitor library screening, IGR37 XP, 10μΜ ([6]; 10μΜ) [%] | Cell viability in kinase inhibitor library screening, IGR37 XP, 1μΜ ([6]; 1μΜ, in %) | Cell viability in kinase inhibitor library screening, A375 XP, 1μΜ ([4]; 1μΜ) | other results
COc1cc2ncnc(Nc3cccc(Cl)c3)c2cc1OC [AG-1478 (Tyrphostin AG-1478)] |  |  |  |  |  |  |  |  |  |  |  |  |  |  |  |  |  |  | cell viability, 501Mel Parental, 1μΜ (501Mel cells (parental); 1μΜ): 96.5; cell viability, 501Mel Parental, 10μΜ (501Mel cells (parental); 10μΜ): 70.7; cell viability, 501Mel GP, 1μΜ ([1]; 1μΜ): 102.7; cell viability, 501Mel GP, 10μΜ ([1]; 10μΜ): 55.4; cell viability, 501Mel XP, 1μΜ ([2]; 1μΜ): 86.2; cell viability, 501Mel XP, 10μΜ ([2]; 10μΜ): 48.5; cell viability, A375 Parental, 10μΜ (A375 cells (parental); 10μΜ, in %): 94.0; cell viability, A375 GP, 1μΜ ([3]; 1μΜ, in %): 91.6; cell viability, A375 GP, 10μΜ ([3]; 10μΜ, in %): 90.4; cell viability, A375 XP, 1μΜ ([4]; 1μΜ, in %): 99.5; cell viability, A375 XP, 10μΜ ([4]; 10μΜ, in %): 98.9; cell viability, IGR37 Parental, 1μΜ (IGR37 cells (parental); 1μΜ): 96.0; cell viability, IGR37 Parental, 10μΜ (IGR37 cells (parental); 10μΜ): 98.8; cell viability, IGR37 GP, 10μΜ ([5]; 10μΜ): 86.3%; cell viability, IGR37 GP, 1μΜ ([5]; 1μΜ, in %): 88.5; cell viability, IGR37 XP, 10μΜ ([6]; 10μΜ): 46.3%; cell viability, IGR37 XP, 1μΜ ([6]; 1μΜ, in %): 76.6
Oc1ccc(-c2nc(-c3ccncc3)c(-c3ccc(F)cc3)[nH]2)cc1 [SB 202190] | 105.7 | 89.1 | 108.3 | 90.0 | 98.4 | 74.6 | 64.6 | 114.0 | 105.4 | 98.4 | 98.7 | 118.8 | 83.2 | 85.3 | 104.9 | 56.3 | 103.1 |  | 
COC(=O)Nc1ccc(-c2nc(N3CCOCC3)c3cnn(C4CCN(Cc5cccnc5)CC4)c3n2)cc1 [WYE-687] | 65.3 | 9.6 | 55.7 | 10.7 | 83.5 | 7.5 | 21.5 | 74.1 | 67.7 | 19.9 | 19.2 | 75.9 | 26.2 | 24.9 | 77.7 | 7 | 62.5 | 59.8 | 
NCC(=O)Nc1ccc(-n2nc(C(F)(F)F)cc2-c2ccc3c(ccc4ccccc43)c2)cc1 [OSU-03012] | 91.0 | 0.3 | 94.0 | -0.274 | 90.0 | -0.352 | 0.756 | 91.6 | 89.7 | 0.547 | 0.7 |  | 0.5 | 2.3 | 99.0 | 1.4 | 109.9 | 91.6 | 

From publication PMC6364417, “Kinase inhibitor library screening identifies synergistic drug combinations effective in sensitive and resistant melanoma cells” (Journal of Experimental & Clinical Cancer Research : CR, 2019)
